Read-outs that look alike come from different tables or passages of the source.
Experiments:
[1] = system: neuronal stem cells; conditions: ref Liang et al.; cited from earlier work
[2] = cited from earlier work; for predicted or literature experimental log Kow: ref Hansch, 1995
[3] = system: PPARγ; design: method as in Crosthwait et al. 2025; Sun et al. 2025; conditions: ref Crosthwait et al. 2025; Sun et al. 2025; cited from earlier work
[4] = system: Tox21 assays; experiment: Re-evaluated Tox21 data (Adamovsky et al.), REPBPA and SRbaseline; conditions: for SRbaseline: Specificity Ratio;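 as to all read-outs here: published Tox21 results reanalysed with a revised model predicting baseline toxicity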
Description: We also reanalyzed the Tox21 data of Adamovsky et al. with the updated baseline toxicity prediction model (Table S2).

[5] = system: ERα; experiment: Literature ERα reporter gene assays (comparison); format: cell-based; conditions: for EC10, approx.: in M (unit assumed)
Protocol: S5.4: Comparison with literature data for ERα reporter gene assays
To improve data comparability with our own results we converted reported EC₅₀ to EC₁₀ by dividing by 9, which is the ratio for log-logistic concentration-response curves with a hillslope of 1 (Figure S9a). Additionally, REPBPA values were calculated to enable a more consistent evaluation. Methodological differences between studies must be considered, as Reiniger et al.24 used the YES assay, while Goksøyr et al.25 applied ERα from fish (Figure S9b).
Cyan symbols highlight the ER-UAS-bla GripTite (this study and Tox21GenBLA).
(1 picture or pasted object on this page, not shown here)

[6] = system: Tox21 assays; conditions: cited from earlier work
[7] = system: ERα; conditions: cited from earlier work
[8] = 15 min
Protocol: The mixtures were adjusted to a final volume of 100 μL with acetonitrile (ACN). The reaction mix was incubated for 15 min at 30 °C and 1000 rpm on a Bioshake iQ orbital shaker from QInstruments (Jena, Germany). Additionally, a mixture without test compounds was prepared as a control. Subsequently, 10 μL of the reaction mixture was transferred into a conical dosing vial and evaporated under a nitrogen flow.
For chemical analysis, 10 μL of the reaction mixture was concentrated under vacuum (CentriVap, Labconco, Kansas City, MO, USA), diluted to 1 mg/L in ACN or ethyl acetate. The chemical analysis of the reaction mixtures was performed using liquid chromatography (LC) and gas chromatography (GC) coupled with various detection techniques, preferably Multiple Reaction Monitoring (MRM). Data acquisition and processing were carried out using the software MassHunter. Quantification was based on external calibrations.
The Cparent-Ratio quantifies the extent of oxidation of the parent compound after the abiotic CYP reaction. It was calculated as the ratio of the parent compound concentration after oxidation (C parent, after oxidation) to its concentration before oxidation (C parent, before oxidation) as shown in eq . […] 8 Cparent‐Ratio=Cparent,after oxidation/Cparent,before oxidation

[9] = system: HEK293H, HEK293T, H4IIe, MCF7 and SH-SY5Y cells; conditions: for IC10,Median (M): median cytotoxicity of all cell lines; for IC10, median: median cytotoxicity over all cell lines
Protocol: Cell culture conditions and bioassay protocols including response detection are provided in Text S2.1–2.4 and Table S3. − Cell viability was determined from cell confluency using an IncuCyte S3 Live-Cell Analysis System (Sartorius AG, Essen, Germany) before and after exposure, except for SH-SY5Y cells (live–dead staining with Nuclear Green LcS1 and propidium iodide, Abcam, UK). For metabolic activation experiments, cell viability was assessed using the ToxBLAzer DualScreen Kit (Thermo Fisher Scientific) to capture the remaining toxicity in ERα-UAS-bla GripTite after treatment with the aCYP catalyst (details in Text S2.4).
For ARE, the concentration that triggered an induction ratio of 1.5 (ECIR1.5) was used as the benchmark value, as detailed in Text S2.5. IC10 values also served as a threshold for data analysis in all assays; only concentrations below IC10 were considered when deriving EC10 or ECIR1.5.
TR indicates whether the cytotoxicity is triggered by specific toxicity mechanisms (TR ≥ 10) or not (0.1< TR< 10). 3 TR=IC10,baseline/IC10 We measured the cytotoxicity of BPA and its alternatives in HEK293H (PPARγ), HEK293T (ERα), H4IIe (AhR CALUX), MCF7 (ARE/MMP), and differentiated SH-SY5Y cells (Table S6). […]
medium, supplemented with 2% B-27 Supplement and 2 mM GlutaMAX Supplement. SH - SY5Y cells were differentiated with 10 µM all-trans retinoic acid prior to the assay.
S2.2: Cell Seeding and Incubation. For all bioassays, cell suspensions in the respective assay medium were dispensed into each well of 384-well plates using a MultiFlo Dispenser (Biotek, (now Agilent), Winooski, VT, U.S.). After seeding, the plates were incubated at 37° C and 5% CO₂ for […]. The final cell densities and plate types were as follows: Black poly-D-lysine […]
6500 cells/well, ERα: 5000 cells/well. White 384-well plates with a clear bottom (Product No.
NYC, U.S.) for AhR: 3250 cells/well. Black Collagen I coated plates were used (Product No.
S2.3: Chemical Dosing and Assay Analysis Procedures. The dosing procedure and high-throughput assay workflow have been described in detail before. 9 The dosing concentrations […]
Stock solutions were then either added directly to the respective cell culture medium or evaporated under nitrogen, followed by replenishment with fresh medium. The final solvent content in each well was kept below 1% for methanol, 0% for acetonitrile.
Dosing plates were prepared as 11 -step serial dilutions using a Hamilton Microlab Star robotic system (Hamilton, Bonaduz, Switzerland), and chemicals were dosed in duplicates by transferring 10 μL twice from the dosing plates to the cell plates . After quantifying cell confluency as described in S2. 4., the exposed cells were incubated at 37° C and 5% CO₂ for an additional 24 h. All chemicals were tested in all assays with at least three independent […]
S2.4: Cell Viability Measurement s and bioanalytical protocols . The confluency as a measure of cell viability was determined with an IncuCyte S3 Live -Cell Analysis System (Sartorius AG, Essen, Germany). With this method the confluency of cells in a microscopy image are normalized to control wells without cells and compared before and after 24 hours of exposure.
This method has been described previously 13. Cell viability of SH-SY5Y cells was measured […]
propidium iodide (PI, Abcam, Cambridge, U.K.).14 Nuclear Green LCS1 is a membrane-permeable dye that stains the nuclei of all cells, whereas PI only enters cells with compromised membrane integrity (non-viable cells). After staining, live cells show green nuclei without red fluorescence, while dead cells display both green and red nuclear fluorescence due to PI […]
intercalation. Cell viability was calculated as the proportion of green-only nuclei relative to the […]
For experiments with the preceding aCYP activation, ERα cell viability was additionally calculated from the readout of the ToxBLAzer reagent. The ToxBLAzer assay was conducted following the manufacturer's instructions (Thermo Fisher, Waltham, MA, U.S.).13 Fluorescence

[10] = TOX21_AR_LUC_MDAKB2_Antagonist_0,5nM_R1881, Relative Effect Potency
[11] = TOX21_AR_LUC_MDAKB2_Antagonist_0,5nM_R1881
[12] = TOX21_PPARg_BLA_antagonist_ratio
[13] = Tox21BLA, ref Adamovsky et al. 2024
[14] = Tox21Luc, ref Adamovsky et al. 2024
[15] = Atlantic cod estrogen receptor, approximated from literature EC50, ref Goksøyr et al 2024
[16] = Atlantic cod estrogen receptor, ref Goksøyr et al 2024
[17] = approximated from literature EC50, ref Pelch et al 2019
[18] = approximated from literature EC50, ref Reiniger et Oehlmann 2024
[19] = approximated from literature values, ref Kojima et al 2019
[20] = relative estrogenic potency vs BPA, ref Kojima et al 2019
[21] = relative estrogenic potency vs BPA, ref Pelch et al 2019
[22] = relative estrogenic potency vs BPA, ref Reiniger et Oehlmann 2024
[23] = TOX21_PPARg_BLA_antagonist_ratio, re-evaluated Tox21 data, ref Adamovsky et al 2024
[24] = estrogen receptor from Atlantic cod (Gadus morhua), ref Goksøyr et al 2024

| SMILES | concentration with significant reduction in average neurite length [1] | predicted or literature experimental log Kow [2] | REPBPA [4, 10] | SRbaseline [4, 11] | SRbaseline [4, 12] | REPBPA [4, 13] | REPBPA [4, 14] | EC10, approx. [5, 15] | REPBPA [5, 16] | EC10, approx. [5, 17] | EC10, approx. [5, 18] | EC10, approx. [5, 19] | REPBPA [5, 20] | REPBPA [5, 21] | REPBPA [5, 22] | EC50 [7, 24] | EC50 ([7]; ref Kojima et al 2019) | EC50 ([7]; ref Pelch et al 2019) | Efficacy % ([7]; ref Pelch et al 2019) | Efficacy % ([7]; ref Reiniger et Oehlmann 2024) | also measured |
| --- | --- | --- | --- | --- | --- | --- | --- | --- | --- | --- | --- | --- | --- | --- | --- | --- | --- | --- | --- | --- | --- |
| CC(C)(c1ccc(O)cc1)c1ccc(O)cc1 [BPA, 4,4'-(Propane-2,2-diyl)diphenol, reference compound] | 1 nM | 3.32 | 1.00 | 32.80 | 10.39 | 1.00E+00 | 1.00E+00 | ~2.11E-07 | 1.00E+00 | ~1.33E-07 | ~2.51E-07 | ~3.65E-08 | 1.00E+00 | 1.00E+00 | 1.00E+00 | 1900 nM | 330 nM | 1200 nM | 110.30% | 9.42E+01% | log (KBSAw /(Lw/Lprotein)) (neutral species) ([2]; exp. + log(1.36 kg/L), ref Endo and Goss 2011): 3.57; log D lipw ([2]; pH 7.4, ref Kwon et al. 2006): 3.65; log (DBSAw /(Lw/Lprotein) (pH7.4)) ([2]; ref Endo and Goss 2011): 3.01; log (KBSAw /(Lw/kgprotein)) (neutral species) ([2]; ref Endo and Goss 2011): 3.44; log (Dlipw/(Lwater/kglipid) or (Lwater/Llipid)) (pH 7.4) ([2]; ref Kwon et al. 2006): 3.65; PPARγ transactivation reported in the literature [3]: No agonism was detected; REPBPA ([4]; ATG_NRF2_ARE_CIS_up, Relative Effect Potency): 1.00; SRbaseline ([4]; ATG_NRF2_ARE_CIS_up): 10.51; REPBPA ([4]; TOX21_CAR_Agonist, Relative Effect Potency): 1.00; SRbaseline ([4]; TOX21_CAR_Agonist): 57.94; REPBPA ([4]; TOX21_CAR_Antagonist, Relative Effect Potency): 1.00; SRbaseline ([4]; TOX21_CAR_Antagonist): 145.9; EC10 ([6]; ATG_NRF2_ARE_CIS_up, re-evaluated Tox21 data, ref Adamovsky et al 2024): 7.56e-06 M; EC10 ([6]; TOX21_AR_LUC_MDAKB2_Antagonist_0,5nM_R1881, re-evaluated Tox21 data, ref Adamovsky et al 2024): 2.42e-06 M; EC10 ([6]; TOX21_CAR_Agonist, re-evaluated Tox21 data, ref Adamovsky et al 2024): 1.37e-06 M; EC10 ([6]; TOX21_CAR_Antagonist, re-evaluated Tox21 data, ref Adamovsky et al 2024): 5.45e-07 M; EC10 [6, 23]: 7.65e-06 M; EC10 [6, 13]: 5.92E-07; EC10 [6, 14]: 5.63E-08; EC50 ([7]; ref Reiniger et Oehlmann 2024): 2260 nM |
| Oc1ccc(Cc2ccc(O)cc2)cc1 [BPF, Bis(4-hydroxyphenyl)methane] | 1 nM | 2.91 | – | – | 17.20 | – | 4.84E-01 | ~4.22E-07 | 5.00E-01 | ~1.78E-07 | ~2.82E-07 | ~5.50E-08 | 6.64E-01 | 7.50E-01 | 8.90E-01 | 3800 nM | 320 nM | 1600 nM | 63.10% | 1.05E+02% | REPBPA ([4]; ATG_PPARg_TRANS_up, Relative Effect Potency): 0.40; SRbaseline ([4]; ATG_PPARg_TRANS_up): 41.61; reduction of C parent after aCYP oxidation [8]: 48%; cytotoxicity,median REPBPA,IC10 ([9]; median IC10 relative to BPA): 0.17; IC10,Median (M) [9]: 4.09 × 10^–4 M; IC10, median [9]: 409000 nM; EC10 ([6]; ATG_PPARg_TRANS_up, re-evaluated Tox21 data, ref Adamovsky et al 2024): 3.95e-06 M; EC10 [6, 23]: 9.55e-06 M; EC10 [6, 14]: 8.91E-08; EC50 ([7]; ref Reiniger et Oehlmann 2024): 2540 nM |
| O=S(=O)(c1ccc(O)cc1)c1ccc(O)cc1 [BPS, 4,4'-Sulfonyldiphenol] | 1 nM | – | 0.0653 | 127.8 | – | 1.59E-01 | 1.68E-02 | ~9.26E-06 | 2.28E-02 | ~1.44E-07 | ~7.13E-09 | ~8.50E-07 | 4.29E-02 | 9.23E-01 | 3.52E+01 | 83300 nM | 5400 nM | 1300 nM | 61.60% | 7.90E+00% | SRbaseline ([4]; ATG_PPARg_TRANS_up): 2973; REPBPA ([4]; ATG_chAR_XSP2_up, Relative Effect Potency): 1.00; SRbaseline ([4]; ATG_chAR_XSP2_up): 645.8; SRbaseline ([4]; ATG_hPPARg_XSP2_up): 3669; % Loss [8]: -2%; IC10,Median (M) [9]: 5.61 × 10^–4 M; IC10, median [9]: 561000 nM; REPBPA,ERα reported in the literature ([7]; ref Text S5.4, Tables S2 and S7): 0.02–1 |

Reference: PMC12392461, “Beyond Estrogenicity: A Comparative Assessment of Bisphenol A and Its Alternatives in In Vitro Assays Questions Safety of Replacements” (Environmental Science & Technology, 2025)
